In brackets after ≈: the same amount, converted by molar mass. Where two headings read alike, the source gives them in different places.
Tests used:
[1] = solids shaken in water or pH 1 / 4.5 / 6.8 buffer at 37° C.
Method: (§1) The resulting samples were shaken at 37° C. for 1 hour. […] All samples were then shaken at 37° C. for 23 hours. […] Any solids which were isolated by filtration were assessed by XRPD to determine whether the form of the material had changed.

[2] = for Hygroscopicity: GVS, double cycle
Method: Typically, approximately 10-20 mg of sample was placed into a mesh vapour sorption balance pan and loaded into an IGASorp Moisture Sorption Analyser balance by Hiden Analytical. The sample was subjected to a ramping profile from 40-90% relative humidity (RH) at 10% increments, maintaining the sample at each step until a stable weight had been achieved (98% step completion, minimum step length 30 minutes, maximum step length 60 minutes) at 25° C. After completion of the sorption cycle, the sample was dried using the same procedure to 0% RH, and finally taken back to the starting point of 40% RH. Two cycles were performed. The weight change during the sorption/desorption cycles were plotted, allowing for the hygroscopic nature of the sample to be determined.

[3] = physchem; conditions: for solubility at 24 h: 37 °C, thermodynamic from solid
Method: For each sample, 30 mg of the freebase was weighed into vials (in triplicate) and 1 mL of water or buffer was added. The following buffers (50 mM in each case) used were: • pH 1 25 mL KCl solution (1.49 g dissolved in 100 mL water) and 42.5 mL HCl solution (1.66 mL made up to 100 mL with water) were added together and made up to 100 mL with water; • pH 4.5 anhydrous sodium acetate (1.07 g) was dissolved in water (about 150 mL) before adding 5.9 mL acetic acid solution (11.6 mL glacial acetic acid made up to 100 mL with water). The resulting solution was made up to 500 mL with water; and • pH 6.8 25 mL of KH2PO4 solution (2.72 g dissolved in about 80 mL water and made up to 100 mL with water) and 11.2 mL of NaOH solution (800 mg of sodium hydroxide was dissolved and diluted to 100 mL with water) were added together and made up to 100 mL with water.
as §1

[4] = up to 1 mL
Method: Between each addition, the mixture was checked for dissolution and, if no dissolution was apparent, the mixture was heated to about 50° C. and checked again. After 300 μL of solvent had been added, 100 μL aliquots were added sequentially. This procedure was continued until dissolution was observed or until 1 mL of solvent had been added. If no dissolution occurred, the solids were isolated by filtration and an XRPD pattern was collected. If dissolution occurred, the solvent was evaporated and an XRPD pattern was collected on any solid which remained.

[5] = test system: BRCA1- and BRCA2-deficient cell lines; conditions: in vitro; cited from earlier work
[6] = test system: human cancers with deficiencies in BRCA1 and BRCA2 or with homologous recombination deficiency (HRD); conditions: mutated or wild-type BRCA1/2; cited from earlier work
[7] = test system: poly (ADP-ribose) polymerase (“PARP”) proteins; conditions: selective for PARP-1 and PARP-2; Thorsell et al.; cited from earlier work
[8] = pH 1 buffer (50 mM), shaken at 37° C. for 24 hours in total, average of triplicate
[9] = water, shaken at 37° C. for 24 hours in total, average of triplicate

In the case of `NC(=O)c1cccc2cn(-c3ccc([C@@H]4CCCNC4)cc3)nc12` [Crystalline Form I, 2-{4-[(3S)-piperidin-3-yl]phenyl}-2H-indazole-7-carboxamide], the “Solid form after filtration (XRPD)” value ([1]; listed as crystalline samples) is reported as “unchanged”, the Hygroscopicity ([2]; listed as Niraparib freebase Form I) is reported as “non-hygroscopic” and the Hygroscopicity ([2]; listed as niraparib freebase Form I) is reported as “non-hydroscopic”. For the same molecule, the GVS mass increase ([2]; up to 90% RH, 25° C.) was “about 0.7%”, the Solubility [3, 8] was 30900 µg/mL (≈ 96.4 mM) and the Solubility ([3]; pH 4.5 buffer (50 mM), shaken at 37° C. for 24 hours in total, average of triplicate) was 11800 µg/mL (≈ 36.8 mM). It also gave a Solubility ([3]; pH 6.8 buffer (50 mM), shaken at 37° C. for 24 hours in total, average of triplicate) of 700 µg/mL (≈ 2.18 mM) and a Solubility [3, 9] of less than 100 µg/mL.

For `NC(=O)c1cccc2cn(-c3ccc([C@@H]4CCCNC4)cc3)nc12` [Amorphous Form, 2-{4-[(3S)-piperidin-3-yl]phenyl}-2H-indazole-7-carboxamide], the “Solid form after filtration (XRPD)” value ([1]; listed as amorphous samples) was “a new crystalline form was obtained (Form V)”, the “Dissolution in 2-propanol” value ([4]; 2-propanol, heated to about 50° C.) was “partially soluble” and the Dissolution in ethanol ([4]; ethanol, with heating to about 40° C.) was “Complete dissolution”. For the same molecule, the Solubility [3, 8] was 11800 µg/mL (≈ 36.8 mM), the solubility at 24 h ([3]; pH 4.5 sodium acetate/acetic acid buffer, pH 4.5, aqueous buffer, pH 4.5 buffer (50 mM), shaken at 37° C. for 24 hours in total, average of triplicate) was 13400 µg/mL (≈ 41.8 mM) and the solubility at 24 h ([3]; pH 6.8 KH2PO4/NaOH buffer, pH 6.8, aqueous buffer, pH 6.8 buffer (50 mM), shaken at 37° C. for 24 hours in total, average of triplicate) was 600 µg/mL (≈ 1.87 mM). For the same molecule, the Solubility ([3]; water, Solubility in water, summary statement, conditions not stated) was roughly 1000 µg/mL (≈ 3.12 mM) and the Solubility [3, 9] was 800 µg/mL (≈ 2.5 mM).

For `NC(=O)c1cccc2cn(-c3ccc([C@@H]4CCCNC4)cc3)nc12` [Niraparib, 2-{4-[(3S)-piperidin-3-yl]phenyl}-2H-indazole-7-carboxamide], the Inhibition of proliferation [5] is listed as “inhibits the proliferation”, the Tumor growth [6] is listed as “decreases tumor growth” and the PARP inhibition [7] is listed as “potent inhibitor”.
